Data taken from patent publication US9265771B2, “Method for treating Lyme disease” (Zoetis Services LLC, priority 2012, dated 2016).

Assays:
[1] = feline; cited from earlier work
B. burgdorferi [2] = test: Study B: microscopic examination of joints and skin at necropsy; type: in vivo, beagle dogs; settings: for Number of Joints with Changes as Described for Lyme disease: N = 8
Method: Thirty-two (18 male and 14 female) beagle dogs were sero-negative for Borrelia burgdorferi, not vaccinated with any Borrelia spp vaccines, and acclimated at the study facility for seven days. The study was conducted under National Research Council guidelines (1996). […] Field-caught Ixodes from the northeast USA were placed on the dogs without containment chambers for 10 days; after ticks fed to repletion, dogs were treated with two applications of an approved topical acaricide with a 30-day interval between applications.
Forty days post-challenge, and prior to antibiotic treatments, blood was collected from each dog as were two skin biopsy punch samples near tick attachment sites. Blood was collected approximately monthly post-treatment. Skin biopsies were taken near the tick attachment site on Days 48/49, 118, 146, 180, and 315. Serum antibodies to Borrelia were assayed using the IDEXX SNAP-4Dx and QC6 ELISA. In cooperation with Cornell University, serum samples were analyzed using fluorescent-bead-based multiplex assays detecting antibodies against B. burgdorferi outer surface proteins OspA, OspC, and OspF. Data were expressed as median fluorescent intensities (MFI), and shown to be specific and sensitive to provide interpretative guidelines regarding infection. The skin biopsies were collected for a polymerase chain reaction (PCR; FlaB) assay and cultured for spirochete detection. At the end of the study, blood and skin biopsies were collected and synovial tissue from the joints were harvested at necropsy.
On Day 75 and Day 89 Convenia was administered to the eight dogs in T04 (8 mg/kg bodyweight; subcutaneous injection). The other treated groups received their respective regimens daily and orally for 30 days from Days 75 to 104. […] Dogs in T01 served as infected, untreated, controls. Inter-treatment comparisons to evaluate antibiotic efficacy included clinical signs, serology, culture results and pathology.
At necropsy ten joints were harvested per each dog, formalin-fixed, stained and examined microscopically. Joints included the carpus, elbow, shoulder, stifle and tarsus on both the right and left limbs. Further, a section of skin near tick attachment sites was evaluated from each dog. There were two dogs in the Convenia group (25%) with tissues showing changes as described for Lyme disease, compared to seven controls (87.5%) and three (37.5%) to four (50.0%) dogs in the other antibiotic-treated groups (Table 7). […] The Convenia group had the lowest incidence of joint changes with six affected of 80.

B. burgdorferi [3] = test: Study A: SNAP-4Dx ELISA in tick-infected dogs; type: in vivo, beagle dogs; settings: N=8
Excerpt: Three outer surface proteins (Osp) on B. burgdorferi are important for diagnosis and prevention, and are expressed by the organism in response to its local environment. […] OspF is another surface protein that is generally observed in late-stage disease. The C in […] refers to a 25-amino acid, C6 peptide in the sixth invariable region of an outer membrane lipoprotein (VIsE). Antibody against C6 is highly accurate as a serologic diagnosis of Lyme disease independent of a subject's (e.g., canine) vaccination status. Further, the generation of C6 antibodies implies an active infection with viable spirochetes. Serological methods for detecting B. burgdorfer/Lyme disease were conducted using the IDEXX qualitative SNAP-4Dx ELISA and the Quantitative C6 (Quant C6 or QC6) diagnostic kits, which are enzyme linked immunosorbent assays against the previously described 25-amino-acid C6 peptide. […]
Twenty-three adult female beagle dogs were used in this study; all were sero-negative for Borrelia, not vaccinated with any Borrelia spp vaccines, and acclimated at the study facility for seven days prior to any study activities. […] Dogs were monitored 21-days post-challenge for pyrexia, and the entire post-challenge period for clinical signs of Lyme disease (lameness, ataxia, anorexia, lymphadenopathy and depression). […]

[4] = joints, skin, 8 dogs/group, necropsy

## CO/N=C(\C(=O)N[C@@H]1C(=O)N2C(C(=O)[O-])=C([C@@H]3CCCO3)CS[C@H]12)c1csc(N)n1.[Na+] [Convenia, (6R,7R)-7-[[(2Z)-(2-amino-4-thiazolyl)(methoxyimino)acetyl]-amino]-8-oxo-3-[(2S)-tetrahydro-2-furanyl]-5-thia-1-azabicyclo[4.2.0]oct-2-ene-2-carboxylic acid, monosodium salt]
[1]
  Elimination half-life: ~166 h
B. burgdorferi [2]; 80 total/group
  Number of Joints with Changes as Described for Lyme disease, Cumulative: 6
B. burgdorferi [2]; Carpus L
  Number of Joints with Changes as Described for Lyme disease: 1
B. burgdorferi [2]; Carpus R
  Number of Joints with Changes as Described for Lyme disease: 1
B. burgdorferi [2]; Elbow L
  Number of Joints with Changes as Described for Lyme disease: 0
B. burgdorferi [2]; Elbow R
  Number of Joints with Changes as Described for Lyme disease: 1
B. burgdorferi [2]; Shoulder L
  Number of Joints with Changes as Described for Lyme disease: 0
B. burgdorferi [2]; Shoulder R
  Number of Joints with Changes as Described for Lyme disease: 0
B. burgdorferi [2]; Stifle L
  Number of Joints with Changes as Described for Lyme disease: 1
B. burgdorferi [2]; Stifle R
  Number of Joints with Changes as Described for Lyme disease: 2
B. burgdorferi [2]; Tarsus L
  Number of Joints with Changes as Described for Lyme disease: 0
B. burgdorferi [2]; Tarsus R
  Number of Joints with Changes as Described for Lyme disease: 0
B. burgdorferi [2]; [4]
  No Tissue Changes, # Dogs: 6
  No Tissue Changes, %: 75%
  Tissue Changes Described for Lyme Disease, # Dogs: two
  Tissue Changes Described for Lyme Disease, %: 25%
B. burgdorferi [2]; joints, skin, 8 dogs/group, necropsy, listed as T04, monosodium salt
  Tissue Changes Described for Lyme Disease, # Dogs: 2
B. burgdorferi [2]; microscopic evaluation of articular joints
  Incidence of joint lesions, lower than in dogs administered doxycycline or amoxicillin orally for 30 days: 2 fold
B. burgdorferi [3]; prior to administration of Convenia on Day 83
  Dogs SNAP-4Dx positive for B. burgdorferi: 100%
B. burgdorferi [3]; through the study (Day 166), 8 mg/kg sc Days 83 and 97
  Number of dogs remaining SNAP-4Dx positive: five to seven
